The text below walks through data of US10532985B2, “Heterocycle and carbocycle derivatives having TRKA inhibitory activity” (Shionogi & Co., Ltd., priority 2014, dated 2020).

The target in data set [1] is T1, human TrkA (Homo sapiens, UniProt P04629).
T1 construct: purchased Lifetechnologies PV3144
Description: Test Example 2: Human TrkA Inhibition Assay. The class given is biochemical. The following applies: Test Example 2. The method in brief: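 Mobility-shift kinase assay: 90 min reaction at room temperature, stopped with EDTA buffer; phosphorylated and non-phosphorylated fluorescent substrate measured, conversion ratio calculated. Inhibition % normalised between DMSO-only wells and no-TrkA wells.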

The nature of data set [2]: Test Example 9-2: Metabolism Stability Test. The class given is in vitro ADME. The following applies: human liver microsomes 0.5 mg protein/mL, 30 minutes, 37° C., 1 mmol/L NADPH. As for the experimental part:
(§1) Using commercially available pooled human hepatic microsomes, a compound of the present invention was reacted for a constant time, and a remaining rate was calculated by comparing a reacted sample and an unreacted sample, thereby, a degree of metabolism in liver was assessed.
(§2) A reaction was performed (oxidative reaction) at 37° C. for 0 minute or 30 minutes in the presence of 1 mmol/L NADPH in 0.2 mL of a buffer (50 mmol/L Tris-HCl pH 7.4, 150 mmol/L potassium chloride, 10 mmol/L magnesium chloride) containing 0.5 mg protein/mL of human liver microsomes. After the reaction, 50 μL of the reaction solution was added to 100 μL of a methanol/acetonitrile=1/1 (v/v), mixed and centrifuged at 3000 rpm for 15 minutes. The compound of the present invention in the supernatant was quantified by LC/MS/MS or Solid Phase Extraction (SPE)/MS, and a remaining amount of the compound of the present invention after the reaction was calculated, letting a compound amount at 0 minute reaction time to be 100%.
A general note: Liver microsomes are vesicles of endoplasmic reticulum, rich in cytochrome P450 enzymes.

Data set [3] addresses T1, human TrkA. Description: Test Example 2-2: Human TrkA Inhibition Assay. The class given is biochemical. The method in brief: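 Kinase (1 nmol/L) pre-incubated 15 min at room temperature with compound, then FL-peptide 27 (1.5 μmol/L) and ATP ([…]) added for 120 min at 37 °C; EDTA stop. Phosphorylated and unphosphorylated substrate separated by mobility-shift readout; IC50 by logistic regression over 10 concentrations.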

Data set [4] has as its target T2, human ether-a-go-go related gene (hERG) channel (Homo sapiens, UniProt Q12809).
T2 construct: expressed in transfected cells; host or cells: CHO cells
Description: Test Example 3: hERG Test (whole cell patch clamp, IKr). The class given is cell-based. The settings on record: CHO cells expressing hERG. The text has this:
For the purpose of assessing risk of an electrocardiogram QT interval prolongation of the compound of the present invention, effects of the compound of the present invention on delayed rectifier K current (I r), which plays an important role in the ventricular repolarization process, was studied using CHO cells expressing human ether-a-go-go related gene (hERG) channel.
After a cell was retained at a membrane potential of −80 mV by whole cell patch clamp method using an automated patch clamp system (QPatch; Sophion Bioscience A/S), IKr induced by leak potential at −50 mV, and then depolarization pulse stimulation at +20 mV for 2 seconds and, further, repolarization pulse stimulation at −50 mV for 2 seconds, was recorded. After the generated current was stabilized, extracellular solution (NaCl: 145 mmol/L, KCl: 4 mmol/L, CaCl2: 2 mmol/L, MgCl2: 1 mmol/L, glucose: 10 mmol/L, HEPES (4-(2-hydroxyethyl)-1-piperazineethanesulfonic acid): 10 mmol/L, pH7.4), in which the compound of the present invention had been dissolved at an objective concentration, was applied to the cell at room temperature for 10 minutes. From the recording IKr, an absolute value of the tail peak current was measured based on the current value at the resting membrane potential using analysis software (Falster Patch; Sophion Bioscience A/S). Further, the % inhibition relative to the tail peak current before application of the compound of the present invention was calculated, and compared with the vehicle-applied group (0.1% dimethyl sulfoxide solution) to assess influence of the compound of the present invention on IKr.
(hERG is a cardiac potassium channel; its block is linked to QT prolongation.)

Data set [5] can be described thus: Test Example 9: Metabolism Stability Test. The class given is in vitro ADME. The settings on record: human liver microsomes 0.5 mg protein/mL, 30 minutes, 37° C., 1 mmol/L NADPH. As for the experimental part: as §1
as §2, with “LC/MS/MS,” for “LC/MS/MS or Solid Phase Extraction (SPE)/MS,”

The mark [6] stands for this setting: human TrkA inhibition, class symbols A/B/C, read-out: IC50_nM.
Where [7] appears, read: human TrkA 2.5 nmol/L, ATP 500 μmol/L, 90 min at room temperature, read-out: TrkA inhibitory activity IC50.
Setting [8] is: human TrkA 1 nmol/L, 120 min at 37° C., read-out: TrkA inhibition IC50.

T1 sequence (P04629 33-796): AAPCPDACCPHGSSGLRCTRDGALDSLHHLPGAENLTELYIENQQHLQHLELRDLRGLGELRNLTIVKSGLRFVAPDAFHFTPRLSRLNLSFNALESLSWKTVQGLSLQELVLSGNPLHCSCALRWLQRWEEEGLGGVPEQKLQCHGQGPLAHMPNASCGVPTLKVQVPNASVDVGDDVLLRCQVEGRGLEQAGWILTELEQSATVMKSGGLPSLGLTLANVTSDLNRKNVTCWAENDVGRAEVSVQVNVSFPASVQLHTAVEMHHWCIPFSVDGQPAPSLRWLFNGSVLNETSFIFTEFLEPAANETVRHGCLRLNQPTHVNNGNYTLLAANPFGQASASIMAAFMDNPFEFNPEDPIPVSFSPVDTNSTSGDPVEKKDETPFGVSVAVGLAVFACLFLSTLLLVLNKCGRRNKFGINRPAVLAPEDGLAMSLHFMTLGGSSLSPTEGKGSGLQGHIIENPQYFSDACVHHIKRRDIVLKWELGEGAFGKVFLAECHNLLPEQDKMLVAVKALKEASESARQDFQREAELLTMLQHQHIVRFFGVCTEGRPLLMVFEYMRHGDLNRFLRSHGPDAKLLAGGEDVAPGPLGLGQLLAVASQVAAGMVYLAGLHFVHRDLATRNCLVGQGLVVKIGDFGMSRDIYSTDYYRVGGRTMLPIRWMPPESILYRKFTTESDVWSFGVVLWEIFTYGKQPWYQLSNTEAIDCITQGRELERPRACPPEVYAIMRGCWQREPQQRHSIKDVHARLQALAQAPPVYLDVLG
T2 sequence (Q12809 whole entry): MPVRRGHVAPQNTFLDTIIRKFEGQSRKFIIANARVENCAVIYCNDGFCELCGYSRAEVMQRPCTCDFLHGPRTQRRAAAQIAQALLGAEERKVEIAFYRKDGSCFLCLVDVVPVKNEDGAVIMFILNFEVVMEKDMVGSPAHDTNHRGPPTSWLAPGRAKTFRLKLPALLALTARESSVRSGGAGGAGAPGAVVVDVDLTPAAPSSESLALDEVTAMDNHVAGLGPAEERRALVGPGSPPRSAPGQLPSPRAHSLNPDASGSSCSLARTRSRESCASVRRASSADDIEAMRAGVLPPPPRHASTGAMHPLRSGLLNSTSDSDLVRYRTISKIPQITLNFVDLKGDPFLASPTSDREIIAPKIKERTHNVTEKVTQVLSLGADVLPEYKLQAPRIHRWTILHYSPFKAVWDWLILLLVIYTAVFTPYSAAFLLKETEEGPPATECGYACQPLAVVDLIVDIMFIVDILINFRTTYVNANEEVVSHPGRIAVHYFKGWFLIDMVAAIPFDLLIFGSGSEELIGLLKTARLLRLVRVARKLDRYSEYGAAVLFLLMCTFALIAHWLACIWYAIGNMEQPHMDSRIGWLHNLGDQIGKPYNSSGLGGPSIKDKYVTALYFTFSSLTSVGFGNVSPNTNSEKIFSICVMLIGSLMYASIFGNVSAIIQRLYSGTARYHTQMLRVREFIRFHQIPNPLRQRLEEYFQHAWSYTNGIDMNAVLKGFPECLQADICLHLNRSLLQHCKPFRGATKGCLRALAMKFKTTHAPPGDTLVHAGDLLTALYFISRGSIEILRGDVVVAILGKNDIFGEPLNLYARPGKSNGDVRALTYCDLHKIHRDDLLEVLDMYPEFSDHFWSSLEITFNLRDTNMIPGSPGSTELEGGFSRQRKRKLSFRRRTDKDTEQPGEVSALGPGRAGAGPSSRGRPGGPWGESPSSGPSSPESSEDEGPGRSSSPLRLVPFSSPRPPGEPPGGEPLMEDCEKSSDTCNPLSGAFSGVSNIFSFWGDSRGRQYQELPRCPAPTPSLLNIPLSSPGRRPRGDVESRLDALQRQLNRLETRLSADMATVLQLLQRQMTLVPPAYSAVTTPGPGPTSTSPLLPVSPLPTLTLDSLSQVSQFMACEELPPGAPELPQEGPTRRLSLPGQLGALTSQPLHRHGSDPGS

With `COCCN1C[C@@H](NC(=O)Nc2c(C)c(-c3cnn(C)c3)nn2-c2ccccc2)[C@H](c2ccc3c(c2)NC(=O)CO3)C1` (racemic) [Compound I-136], the IC50 on human TrkA [1] (setting [6]) was 100 to 1000 nM. Also, the “remaining amount of compound after reaction” value (shortened to “remaining amount of compound”) in data set [2] worked out at 104%.
As to `COCCN1C[C@@H](NC(=O)Nc2c(C)c(-c3cnn(C)c3)nn2-c2ccccc2)[C@H](c2cccc(O)c2)C1` (racemic) [Compound I-96], the IC50 on human TrkA [1] (setting [7]) was found to be 29 nM; at human TrkA [3] (setting [8]), 160 nM. For the same compound, the “remaining amount of compound” value in data set [2] was 90%.
As for `COCC[C@@H]1C[C@@H](NC(=O)Nc2c(C)c(-c3cnn(C)c3)nn2-c2ccccc2)[C@H](c2ccc(F)c(F)c2)N1C` [Compound I-214], the IC50 at human TrkA [3] (setting [6]) was under 100 nM. The “% inhibition of IKr (hERG tail peak current)” value (“% inhibition of IKr” below) in data set [4] stood at 20.2%.
In the case of `COCCN1C[C@@H](NC(=O)Nc2c(C)c(-c3cnn(C)c3)nn2-c2ccccc2)[C@H](c2ccnc(C#N)c2)C1` (racemic) [Compound I-180], the IC50 on human TrkA [3] (setting [6]) was 100 to 1000 nM. For the same compound, the “remaining amount of compound” value in data set [5] amounted to 90%.
As to `COCC[N+]1([O-])C[C@@H](NC(=O)Nc2c(C)c(-c3cnn(C)c3)nn2-c2ccccc2)[C@H](c2ccc(F)c(F)c2)C1` (stereo partly shown) [Compound I-3], the IC50 at human TrkA [1] (setting [7]) amounted to 65 nM; on human TrkA [3] (setting [8]), 50 nM. Further, in data set [4], the “% inhibition of IKr” value was 20.4%.
With `COCC[C@@H]1C[C@@H](NC(=O)Nc2c(C)c(-c3cnn(C)c3)nn2-c2ccccc2)[C@H](c2ccnc(F)c2)C1` [Compound I-262], the IC50 at human TrkA [3] (setting [8]) turned out to be 4.8 nM. Besides, in data set [4], the “% inhibition of IKr” value came out at 20.1%.
Regarding `COCCN1C[C@@H](NC(=O)Nc2c(C)c(-c3cnn(C)c3)nn2-c2ccccc2)[C@H](c2ccc3ncsc3c2)C1` (racemic) [Compound I-107], the IC50 on human TrkA [1] (setting [6]) was under 100 nM. In data set [2], the “remaining amount of compound” value is listed as 92%.
